The results in this text go back to patent US20240368065A1 (HELMHOLTZ-ZENTRUM FÜR INFEKTIONSFORSCHUNG GMBH, priority 2021, published 2024).

For one data set, the target named is T1, purified hACOD1 (Homo sapiens, UniProt A6NK06).
T1 construct: made in house
T1 sequence (A6NK06 1-481): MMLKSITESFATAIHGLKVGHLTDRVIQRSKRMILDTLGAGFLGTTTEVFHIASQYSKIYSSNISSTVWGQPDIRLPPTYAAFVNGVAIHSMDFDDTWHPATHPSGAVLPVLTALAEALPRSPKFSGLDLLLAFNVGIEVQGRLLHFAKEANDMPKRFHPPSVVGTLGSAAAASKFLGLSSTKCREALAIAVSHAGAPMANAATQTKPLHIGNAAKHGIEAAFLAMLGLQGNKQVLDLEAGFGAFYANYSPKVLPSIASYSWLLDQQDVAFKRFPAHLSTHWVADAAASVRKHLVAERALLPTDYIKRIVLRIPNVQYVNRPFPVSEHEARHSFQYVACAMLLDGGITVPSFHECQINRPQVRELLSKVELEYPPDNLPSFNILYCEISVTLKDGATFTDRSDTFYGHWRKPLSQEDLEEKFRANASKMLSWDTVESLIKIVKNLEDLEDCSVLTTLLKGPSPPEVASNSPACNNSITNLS
Kind of data set: hACOD1 enzyme activity in vitro assay, competitive inhibition. The class given is biochemical. The note with it: purified hACOD1, substrate cis-aconitate, competitive inhibition fit, pH 6.5, 37° C.; read-out: Inhibition constant (Ki). The method, then:
The activity of purified hACOD1 was measured in the presence of increasing concentrations of substrate and the five inhibitors. The data were globally fitted to the Michaelis-Menten equation for competitive inhibition.
The activity of purified hACOD1 was measured in the presence of increasing concentrations of substrate and the five inhibitors. The data was globally fitted to the Michaelis-Menten equation for competitive inhibition.
The compounds were dissolved in water, neutralized with NaOH and stored at −20° C. For the assay, 125 μL 0.2 M sodium phosphate buffer, pH 6.5, was mixed on ice with 5 μL enzyme, 10 μl inhibitor (or 10 μl water) and 10 μL substrate (cis-aconitic acid). The following combinations of enzyme amount and substrate concentration were used for CA: 2 μg enzyme and 0.1 mM substrate, 2 μg and 0.3 mM, 3 […] and 1 mM, 5 μg and 3.0/10.0 mM. For the other inhibitors, 2 μg enzyme and 0.1/0.2/0.5 mM substrate, 3 μg and 1.0/2.0 mM, 5 μg and 5.0/10.0 mM. Incubation for 10 min at 37° C. was immediately followed by heat inactivation at 95° C. for 3 min. Protein precipitate was pelleted by centrifugation for 1 h. Supernatants were acidified with 100 μL 100 mM H3PO4.

The target in another data set is T2, ACOD1 (Homo sapiens, UniProt A6NK06).
T2 construct: THP1 were differentiated with PMA and then stimulated with LPS/IFNγ for 24 hours; endogenous in cells; host or cells: THP1 (PMA-differentiated, LPS/IFNγ-stimulated)
T2 sequence (A6NK06 1-481): T1 sequence (A6NK06 1-481)
In words: Cellular ACOD1 inhibition: intracellular itaconate in PMA-differentiated THP1 stimulated with LPS/IFNγ (HPLC-MS/MS). The data set is classed as cell-based. The following applies: compared with citraconic acid. The method, then: FIG. 9: Ethyl homologue of the methyl group of citraconate enhances ACOD1 inhibition in a cellular assay. […] ACOD1 activity was assessed by measuring intracellular itaconate concentrations by HPLC-MS/MS as described in (Winterhoff,
Chen et al Metabolites 2021). IC50=inhibitory concentration 50%; CC50 =cytotoxic concentration 50%; SI=selectivity index=CC50/IC50.
Methylation of the […] of citraconate thus enhances ACOD1 inhibition in a cellular assay. […] ACOD1 activity was assessed by measuring intracellular itaconate concentrations by HPLC-MS/MS as described in Winterhoff, Chen et al (Metabolites 2021).

The subject of data set [1] is mitochondrial ROS in NRF2−/− human vascular endothelial cells. In words: Mitochondrial ROS in human vascular endothelial cells infected with human coronavirus 229E (flow cytometry). The following applies: NRF2−/− cells infected with human coronavirus 229E, 24 h after infection, co-incubation. The data set is classed as cell-based. As to the method: FIG. 10: (Z)-2-Ethylbut-2-enedioic acid maintains anti-oxidative properties. Wild-type or NRF2−/−human vascular endothelial cells were infected with human coronavirus 229E (a low pathogenic, seasonal strain), and mitochondrial ROS levels were measured by flow cytometry 24 h after infection.
Maintenance of anti-ROS activity of (Z)-2-ethylbut-2-enedioic acid (“ethylcitraconic acid”; Formula VIII) is shown in a model of infection of cells by a human coronavirus 229E, a low pathogenic CoV strain. Despite the methylation of CA evident in Formel VIII (a methylation that could theoretically lead to loss of electrophilicity), the compound (Z)-2-Ethylbut-2-enedioic acid maintains anti-oxidative properties. Wild-type or NRF2−/−human vascular endothelial cells were infected with human coronavirus 229E (a low pathogenic, seasonal strain), and mitochondrial ROS levels were measured by flow cytometry 24 h after infection.
A general note: In flow cytometry, cells or beads pass a laser one at a time.

Data set [2] deals with succinate dehydrogenase (SDH) (Homo sapiens, UniProt P31040). Kind of data set: Preliminary data on binding to succinate dehydrogenase.
Chain of succinate dehydrogenase (SDH) (P31040 43-664): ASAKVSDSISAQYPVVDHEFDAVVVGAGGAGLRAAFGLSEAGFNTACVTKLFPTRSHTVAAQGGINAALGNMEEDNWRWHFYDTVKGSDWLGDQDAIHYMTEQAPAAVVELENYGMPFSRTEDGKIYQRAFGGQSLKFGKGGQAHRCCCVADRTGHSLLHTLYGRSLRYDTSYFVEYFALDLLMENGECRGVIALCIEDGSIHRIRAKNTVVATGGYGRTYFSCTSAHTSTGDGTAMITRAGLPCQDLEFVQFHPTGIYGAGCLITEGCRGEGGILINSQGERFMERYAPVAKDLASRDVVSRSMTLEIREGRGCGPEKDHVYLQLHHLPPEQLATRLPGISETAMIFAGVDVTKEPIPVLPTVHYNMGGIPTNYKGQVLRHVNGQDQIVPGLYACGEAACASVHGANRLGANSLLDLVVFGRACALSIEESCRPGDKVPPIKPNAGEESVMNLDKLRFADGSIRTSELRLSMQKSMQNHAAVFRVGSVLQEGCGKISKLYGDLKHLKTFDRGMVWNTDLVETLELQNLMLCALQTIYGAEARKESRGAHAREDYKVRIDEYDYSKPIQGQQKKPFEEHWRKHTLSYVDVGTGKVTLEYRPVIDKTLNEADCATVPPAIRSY
Chain of succinate dehydrogenase (SDH) (P21912 29-280 partner): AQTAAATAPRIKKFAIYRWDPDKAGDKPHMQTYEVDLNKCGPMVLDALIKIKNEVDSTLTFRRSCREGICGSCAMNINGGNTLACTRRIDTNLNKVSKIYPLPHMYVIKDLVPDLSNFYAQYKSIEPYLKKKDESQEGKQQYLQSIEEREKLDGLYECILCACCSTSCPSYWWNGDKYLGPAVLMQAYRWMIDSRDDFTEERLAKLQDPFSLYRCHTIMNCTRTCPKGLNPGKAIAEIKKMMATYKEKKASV
Chain of succinate dehydrogenase (SDH) (Q99643 30-169 partner): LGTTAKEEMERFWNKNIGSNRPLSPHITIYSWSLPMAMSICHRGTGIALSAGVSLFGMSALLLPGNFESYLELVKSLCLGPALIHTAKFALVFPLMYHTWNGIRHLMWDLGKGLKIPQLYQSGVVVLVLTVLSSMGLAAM
Chain of succinate dehydrogenase (SDH) (O14521 57-159 partner): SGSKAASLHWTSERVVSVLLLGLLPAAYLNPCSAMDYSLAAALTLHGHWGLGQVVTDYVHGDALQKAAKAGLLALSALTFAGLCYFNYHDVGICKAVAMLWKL
Data set [3] has as its system reactive oxygen species (ROS) in dTHP1 cells. Kind of data set: Mitochondrial ROS in influenza A virus-infected dTHP1 cells (MitoSox Red, flow cytometry). The class given is cell-based, human. The following applies: dTHP1 infected with influenza A virus, 10 mM compound, 12 h after infection. As to the method: dTHP1 Cells were seeded at a density of 2×10^5 cells per well in a 12-well plate and infected with influenza A virus at an MOI of 1. Mitochondrial ROS were measured 12 h after infection. Cells were incubated for 5 min with medium containing 5 μM of MitoSox Red (mitochondrial superoxide indicator, Invitrogen) and were washed with PBS. Cells were then resuspended in cold PBS and mitochondrial ROS was measured via the phycoerythrin (PE) channel using a BD™ LSR-II flow cytometer.
As can be observed in FIG. 2, dTHP1 cells were infected with influenza A virus, incubated with 10 mM CA, IA, or MA, and reactive oxygen species (ROS) were measured by flow cytometry.

A further data set deals with phosphorylated STAT1. In words: STAT1 phosphorylation immunoblot in influenza A virus-infected A549 and dTHP1 cells. The class given is cell-based, human. The note with it: A549 and dTHP1 cells infected with influenza A virus; anti-P-STAT1 immunoblot. As to the method:
A549 and dTHP1 cells were infected with influenza A virus and treated with CA, IA or MA.
2×10^5 dTHP1 cells were infected with influenza A virus (H1N1) strain PR8M at a multiplicity of infection of 1. 12 h after infection, cells were washed in buffer, pelleted, and protein extracts resolved by gel electrophoresis and transferred to a nylon membrane. Bands corresponding to phosphorylated Stat1 protein were visualized by enhanced chemiluminescense using specific anti-P-STAT1 primary antibody and […] as secondary antibody.
As can be observed from FIG. 3, A549 and dTHP1 cells were infected with influenza A virus and treated with CA, IA or MA. […] STAT1 phosphorylation is known to be associated with inflammation, and thus CA represents an effective substance in reducing inflammation.
(In general: Immunoblotting shows a protein as a band on a membrane.)

In data set [4] the test system is Nrf2 signaling (AKR1B10 mRNA). In words: Induction of Nrf2 signaling: AKR1B10 mRNA in HaCaT cells (RT-qPCR). The class given is cell-based, human. The note with it: 12 hours treatment. As to the method:
Induction was greatest by CA, intermediate by IA and lowest by MA.
The immortalized human keratinocyte cell line HaCaT was grown in RPMI 1640 medium (GIBCO Life Technologies, Karlsruhe, Germany) supplemented with 30% FCS, 100 μg/mL pen/strep, 500 μg/mL gentamycin and 1% each Glutamax and nonessential amino acid solution (NEAA; GIBCO Life Technologies, Karlsruhe, Germany). Cells were treated with the indicated concentrations of itaconate, mesaconate and citraconate for 12 hours. Cells were then washed in buffer, pelleted, and RNA was extracted for subsequent analysis of expression of AKR1B10, which is specifically activated by Nrf2 signaling in this cell line. AKR1B10 mRNA expression was determined by RT-qPCR.
Induction was greatest by CA compared to both IA and MA.

Data set [5] concerns influenza A virus (H1N1/34/PR/8M). The data set is classed as cell-based.
The subject of data set [6] is CXCL10 mRNA (encoding IP-10). In words: CXCL10 mRNA expression in influenza A virus-infected dTHP1 cells (RT-qPCR). The data set is classed as cell-based, human. The note with it: dTHP1 infected with influenza A virus PR8M, MOI 1, 12 h after infection; increasing concentrations; compared among CA, IA, MA. (In general: Quantitative PCR measures a nucleic acid by following its amplification.)

Usually Ki stands for the equilibrium dissociation constant of an inhibitor or competing ligand from its target. As for `O=C(O)/C=C(\C(=O)O)c1ccccc1` [2-phenylmaleic acid, 2-Phenylmaleic acid], the Ki on purified hACOD1 came out at 60 ± 30 µM.
On to `CC1CCC(C(=O)O)=C1C(=O)O` (centres unmarked) [3-Methyl-cyclopent-1-ene-1,2-dicarboxylic acid], for which, on purified hACOD1, the Ki stood at 0.335 µM.
Turning to `CC/C(=C/C(=O)O)C(=O)O` [(Z)-2-ethylbut-2-enedioic acid], on purified hACOD1, the Ki worked out at 0.235 ± 0.021 µM. In addition, at ACOD1, the Cytotoxicity result is reported as “remains the same” and the “Selectivity index (CC50/IC50)” value was “increases”. For the same compound, at ACOD1 (dTHP1, LPS/IFNγ 24 hours, intracellular itaconate), the “ACOD1 inhibition in cellular model” value is on record as “increased ACOD1 inhibition”. For the same compound, in data set [1], the “Mitochondrial ROS levels” value was “reduced to levels seen in uninfected WT cells”.
With `C/C(=C/C(=O)O)C(=O)O` [citraconic acid], in data set [2], the “Direct binding to SDH” value is “does not directly bind SDH”. Also, in data set [3], the “Reduction of reactive oxygen species (ROS)” value is on record as “significant reduction”. Besides, the STAT1 phosphorylation entry in the data set with phosphorylated STAT1 is reported as “reduced STAT1 phosphorylation”. Moreover, the “Induction of AKR1B10 mRNA (Nrf2 signaling)” value (“Induction of AKR1B10 mRNA” below) in data set [4] is reported as “greatest”. Also, in [5], the “Viral RNA (hemagglutinin [HA] mRNA)” value is recorded as “not influenced” and the “Viral titres in culture supernatants” value was “significantly reduced”. Moreover, in data set [6], the “Reduction of CXCL10 mRNA” value is given as “greatest”.
Regarding `O=C(O)C1=C(C(=O)O)CCC1` [cyclopent-1-ene-1,2-dicarboxylic acid, Cyclopent-1-ene-1,2-dicarboxylic acid], the inhibition constant (Ki) at purified hACOD1 amounted to 39 ± 2 µM.
For `C=C(CC(=O)O)C(=O)O` [itaconic acid], the “Reduction of reactive oxygen species (ROS)” value in [3] is “significant reduction”. Also, the STAT1 phosphorylation result in the data set on phosphorylated STAT1 is “reduced STAT1 phosphorylation”. Moreover, the “Induction of AKR1B10 mRNA” value in data set [4] is reported as “intermediate”.
As to `C/C(=C\C(=O)O)C(=O)O` [mesaconic acid], the STAT1 phosphorylation result in the data set on phosphorylated STAT1 is given as “reduced STAT1 phosphorylation”. Further, the “Induction of AKR1B10 mRNA” value in data set [4] is listed as “lowest”.
